Bridge positions count the residues as written; N and C are the ends. Square brackets hold non-standard residues; d marks the D form. Peptide text beside a SMILES is read from it. * marks the point of attachment. d(aThr) = C[C@@H](O)[C@@H](N)C(=O)O; Dhb = C/C=C(\N)C(=O)O; Propionyl = CCC(=O)*
Tests used:
[1] = target: TRPV1 (Mus musculus, UniProt Q704Y3); assay: Long-term TRPV1 antagonism test in mouse DRG neurons; type: cell-based; details: 125 μM, 5 min incubation
[2] = target: T1, TRPV1 (Homo sapiens, UniProt Q8NER1); assay: TRPV1 antagonism, structure-activity comparison; type: cell-based
T1 sequence (Q8NER1 whole entry): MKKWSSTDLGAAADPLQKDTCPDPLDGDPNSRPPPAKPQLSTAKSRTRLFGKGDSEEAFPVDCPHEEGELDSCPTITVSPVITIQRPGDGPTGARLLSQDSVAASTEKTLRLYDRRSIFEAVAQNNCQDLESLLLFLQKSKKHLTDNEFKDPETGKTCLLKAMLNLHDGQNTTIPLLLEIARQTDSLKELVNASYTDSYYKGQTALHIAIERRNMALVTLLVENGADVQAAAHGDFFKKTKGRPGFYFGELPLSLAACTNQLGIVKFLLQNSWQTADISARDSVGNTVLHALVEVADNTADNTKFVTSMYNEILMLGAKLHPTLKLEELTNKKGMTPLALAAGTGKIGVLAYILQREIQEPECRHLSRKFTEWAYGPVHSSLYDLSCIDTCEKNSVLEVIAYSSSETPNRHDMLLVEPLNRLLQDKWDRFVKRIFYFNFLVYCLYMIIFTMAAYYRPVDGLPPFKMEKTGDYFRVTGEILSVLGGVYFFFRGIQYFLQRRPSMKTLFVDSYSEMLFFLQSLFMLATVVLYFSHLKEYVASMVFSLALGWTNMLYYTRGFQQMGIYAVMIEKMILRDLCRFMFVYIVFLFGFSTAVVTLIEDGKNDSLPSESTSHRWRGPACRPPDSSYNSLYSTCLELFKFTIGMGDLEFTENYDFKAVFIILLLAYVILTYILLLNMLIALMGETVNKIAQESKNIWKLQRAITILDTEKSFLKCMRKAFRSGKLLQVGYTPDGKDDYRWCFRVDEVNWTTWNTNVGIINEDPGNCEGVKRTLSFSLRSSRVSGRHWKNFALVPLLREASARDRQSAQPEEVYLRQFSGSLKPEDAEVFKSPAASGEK

[3] = test system: mouse DRG neurons; assay: Fluorometric calcium flux assay in mouse DRG primary cell culture; type: cell-based; details: 125 μM final concentration; 25 mM KCl 5 min after application, then capsaicin
[4] = target: T1, TRPV1; assay: Calcium flux assay in BEAS-2B cells stably overexpressing human TRPV1; type: cell-based; details: capsaicin 2.5 μM
[5] = target: human TRPV1 C621A mutant (Homo sapiens, UniProt Q8NER1, C621A); assay: Calcium flux assay in HEK-293 cells, human TRPV1 C621A mutant; details: 375 μM, pre-incubated (Figure 3)
Chain of human TRPV1 C621A mutant (Q8NER1 whole entry C621A): as the sequence (Q8NER1 whole entry) above, with C621A counted along it

[6] = test system: mutant human TRPV1 variants; assay: Calcium flux assay in HEK-293 cells, three further; details: 375 μM, pre-incubated (Figure 3)
[7] = target: human wild type TRPV1 (Homo sapiens, UniProt Q8NER1); assay: Calcium flux assay in HEK-293 cells transfected with wild-type human TRPV1; type: cell-based; details: for duration of abolished TRPV1 activity after removal of drug: mouse and human TRPV1 channels
Chain of human wild type TRPV1 (Q8NER1 whole entry): as the sequence (Q8NER1 whole entry) above

[8] = target: human TRPV1 C578A mutant (Homo sapiens, UniProt Q8NER1, C578A); assay: Calcium flux assay in HEK-293 cells, human TRPV1 C578A mutant; details: 375 μM, pre-incubated (Figure 3)
Chain of human TRPV1 C578A mutant (Q8NER1 whole entry C578A): as the sequence (Q8NER1 whole entry) above, with C578A counted along it

[9] = target: human TRPV1 F660A mutant (Homo sapiens, UniProt Q8NER1, F660A); assay: Calcium flux assay in HEK-293 cells, human TRPV1 F660A mutant; details: 375 μM, pre-incubated (Figure 3)
Chain of human TRPV1 F660A mutant (Q8NER1 whole entry F660A): as the sequence (Q8NER1 whole entry) above, with F660A counted along it

Chain of TRPV1 (Mus musculus, UniProt Q704Y3) (Q704Y3 whole entry): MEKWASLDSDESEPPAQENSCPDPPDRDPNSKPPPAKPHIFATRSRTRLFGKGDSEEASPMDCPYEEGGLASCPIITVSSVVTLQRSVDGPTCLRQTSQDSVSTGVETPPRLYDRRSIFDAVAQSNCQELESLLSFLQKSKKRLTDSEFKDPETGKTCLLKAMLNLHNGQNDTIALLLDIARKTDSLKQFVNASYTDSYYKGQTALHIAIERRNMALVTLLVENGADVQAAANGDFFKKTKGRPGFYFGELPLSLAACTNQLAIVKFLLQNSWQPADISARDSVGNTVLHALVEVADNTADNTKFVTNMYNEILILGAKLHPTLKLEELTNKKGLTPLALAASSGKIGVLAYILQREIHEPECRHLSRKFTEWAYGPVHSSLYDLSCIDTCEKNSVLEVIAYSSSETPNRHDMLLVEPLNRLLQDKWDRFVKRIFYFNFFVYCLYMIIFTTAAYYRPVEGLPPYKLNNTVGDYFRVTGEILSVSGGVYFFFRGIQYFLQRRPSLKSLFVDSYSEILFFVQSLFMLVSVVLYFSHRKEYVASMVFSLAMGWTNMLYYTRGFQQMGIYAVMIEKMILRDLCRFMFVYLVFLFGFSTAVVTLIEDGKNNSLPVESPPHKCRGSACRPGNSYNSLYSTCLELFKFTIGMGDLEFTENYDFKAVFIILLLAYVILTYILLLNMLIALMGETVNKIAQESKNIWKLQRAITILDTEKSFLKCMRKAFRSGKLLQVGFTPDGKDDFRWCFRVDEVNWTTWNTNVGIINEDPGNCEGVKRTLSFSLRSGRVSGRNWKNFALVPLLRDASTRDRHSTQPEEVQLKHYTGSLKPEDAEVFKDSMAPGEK

Compound	inhibitory activity (in words) [2]	antagonism of capsaicin in direct competition experiments [4]	TRPV1 antagonism in C621A mutant [5]	inhibition of three other TRPV1 mutants [6]	duration of abolished TRPV1 activity after removal of drug [7] [h]	TRPV1 antagonism in C578A mutant [8]	TRPV1 antagonism in F660A mutant [9]	also measured
C/C=C(\NC(=O)[C@H](C)NC(=O)[C@@H](NC(=O)[C@H](NC(=O)[C@H](Cc1ccccc1)NC(=O)[C@@H](CC(C)C)NC(=O)[C@@H](Cc1ccccc1)NC(C)=O)[C@@H](C)O)C(C)C)C(=O)O [Compound 4, Nobilamide A] (Ac-[dF][dL]F[d(aThr)]VA[Dhb]-OH)	exhibited inhibitory activity							recovery of capsaicin response ([1]; three-hour recovery period): recovery was observed after three hours; capsaicin response after incubation with compound ([1]; capsaicin 100 or 200 nM): initially abolished; response to capsaicin after application of pure compound [3]: complete loss of response to capsaicin
C/C=C1\NC(=O)[C@H](C)NC(=O)[C@H](C(C)C)NC(=O)[C@H](NC(=O)[C@H](Cc2ccccc2)NC(=O)[C@@H](CC(C)C)NC(=O)[C@@H](Cc2ccccc2)NC(=O)CC)[C@@H](C)OC1=O [Compound 1, A-3302-B] (Propionyl-[dF][dL]F[d(aThr)]VA[Dhb]; ester 4-C)	exhibited inhibitory activity							
C/C=C1\NC(=O)[C@H](C)NC(=O)[C@H](C(C)C)NC(=O)[C@H](NC(=O)[C@H](Cc2ccccc2)NC(=O)[C@@H](CC(C)C)NC(=O)[C@@H](Cc2ccccc2)NC(C)=O)[C@@H](C)OC1=O [Compound 2, A-3302-A] (Ac-[dF][dL]F[d(aThr)]VA[Dhb]; ester 4-C)	exhibited inhibitory activity	antagonize the action of capsaicin on TRPV1	complete loss of TRPV1 antagonism	in a manner similar to wild type	> 1	complete loss of TRPV1 antagonism	complete loss of TRPV1 antagonism	
CC(=O)N[C@@H](Cc1ccccc1)C(=O)N[C@H](CC(C)C)C(=O)N[C@@H](Cc1ccccc1)C(=O)N[C@@H](C(=O)N[C@H](C(=O)N[C@@H](C)C(=O)O)C(C)C)[C@@H](C)O [Compound 6, Nobilamide C] (Ac-F[dL]F[d(aThr)]VA-OH)	Neither 6 nor 1a exhibited detectable activity							
C/C=C1\NC(=O)[C@H](C)NC(=O)[C@H](C(C)C)NC(=O)[C@H](NC(=O)[C@H](Cc2ccc(O)cc2)NC(=O)[C@@H](CC(C)C)NC(=O)[C@H](Cc2ccccc2)NC(C)=O)[C@@H](C)OC1=O [Compound 8, Nobilamide E] (Ac-F[dL]Y[d(aThr)]VA[Dhb]; ester 4-C)	inactive							
C/C=C(\NC(=O)[C@H](C)NC(=O)[C@@H](NC(=O)[C@H](NC(=O)[C@H](Cc1ccccc1)NC(=O)[C@@H](CC(C)C)NC(=O)[C@@H](Cc1ccccc1)NC(=O)CC)[C@@H](C)O)C(C)C)C(=O)O [Compound 5, Nobilamide B] (Propionyl-[dF][dL]F[d(aThr)]VA[Dhb]-OH)	exhibited inhibitory activity	antagonize the action of capsaicin on TRPV1	complete loss of TRPV1 antagonism	in a manner similar to wild type	> 1	complete loss of TRPV1 antagonism	complete loss of TRPV1 antagonism	potency with pre-incubation versus co-application with capsaicin ([7]; 375 μM compound, capsaicin 25 μM (Figure 1)): greatly increased with pre-incubation; stability of inhibitory activity to washes ([7]; 375 μM, 1 h timecourse with washes (Figure 2)): stable through four washes taking place over a 60-min period; rebound of activity ([7]; after washes, human cells): slight rebound of activity was noticed after one hour
